“Also recorded” adds a separate entry of the source.
Legend:
mice [1] = conditions: cited from earlier work
mice [2] = conditions: cited from earlier work; remark: listed apart in the source
rats = conditions: cited from earlier work
NMDA receptors = conditions: cited from earlier work
monoamine oxidase = conditions: cited from earlier work
[3] = biological target: norepinephrine transporter (Homo sapiens, UniProt P23975); conditions: cited from earlier work
cytochrome P450 1A2 = biological target: T1, cytochrome P450 1A2 (Homo sapiens, UniProt P05177); conditions: cited from earlier work
T1 sequence (P05177 1-516): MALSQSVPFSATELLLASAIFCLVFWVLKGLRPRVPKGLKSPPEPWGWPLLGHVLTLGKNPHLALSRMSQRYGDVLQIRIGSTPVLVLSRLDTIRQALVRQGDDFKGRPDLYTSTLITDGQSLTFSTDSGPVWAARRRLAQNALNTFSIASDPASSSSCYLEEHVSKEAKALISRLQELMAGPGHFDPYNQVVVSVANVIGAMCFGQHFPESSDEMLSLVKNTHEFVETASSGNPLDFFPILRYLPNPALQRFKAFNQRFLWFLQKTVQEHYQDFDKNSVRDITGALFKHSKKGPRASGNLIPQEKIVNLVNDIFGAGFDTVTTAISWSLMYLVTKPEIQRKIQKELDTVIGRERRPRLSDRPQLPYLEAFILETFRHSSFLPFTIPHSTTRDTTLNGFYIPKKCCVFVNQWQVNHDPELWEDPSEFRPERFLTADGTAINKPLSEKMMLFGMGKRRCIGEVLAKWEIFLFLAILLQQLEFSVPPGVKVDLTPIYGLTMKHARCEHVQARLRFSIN

Sprague-Dawley rats [4] = assay: Acute effects on cocaine intravenous self-administration (Phase I, FR5); type: in vivo, rat; conditions: sub-cohort I-b
Experimental: Adult male Sprague-Dawley rats (300-325 g at arrival) from Harlan Laboratory (Indiana, USA) were used. Upon arrival, the rats were assigned a unique identification numbers (tail marks). Animals were single housed in suspended polycarbonate rat cages with filter tops, and were acclimated for up to 7 days. All rats were examined, handled, and weighed prior to initiation of the study to assure adequate health and suitability. During the course of the study, 12 h/12 h light/dark cycles were maintained. The room temperature was 21-23° C. with a relative humidity maintained at 30-70%. Water was provided ad libitum for the duration of the study.
Cocaine Hydrochloride (Sigma-Aldrich, USA) (1.05 mg/ml which is equivalent to 0.3 mg/kg/infusion under 350 g body weight and 0.1 ml/infusion rate) was dissolved in saline (0.9% NaCl). The formulation was a clear solution.
Mavoglurant (free form) was formulated in 0.5% methylcellulose (MC) at 1, 3 and 10 mg/kg and administered orally at a dose volume of 1 ml/kg 60 minutes prior to test.
Intravenous drug self-administration took place in sound attenuated operant chambers equipped with an exhaust fan (Med Associates, VT). Each chamber contained two levers situated on one wall of the chamber. Only one of the two levers was active (located on the left side). Pressing the active lever caused delivery of reinforcer (food or cocaine). […]

Sprague-Dawley rats [5] = assay: Cue-induced reinstatement of the cocaine self-administration response (Phase II); type: in vivo, rat; conditions: 10 mg/kg PO, 1 hour prior to test; after 9-day extinction
Experimental: The methods for food training, catheter surgery, flushing and infusion confirmation were the same as those in Phase I.
Cocaine self-administration training in this stage was conducted in a separate cohort of rats (N=32). The methods of training were the same as those in Phase I, but the cues (light flash plus tone) appeared concurrently during cocaine infusion, and the cue light stayed on during the 20 second timeout period. As in Phase I, rats underwent 15 days of acquisition training.
After a stable rate of cocaine self-administration was achieved, the rats underwent a 9-day extinction procedure, which was similar to acquisition training except that pressing the active lever led to saline infusion instead of cocaine. During extinction sessions no cues were presented after an active lever-press. Rats were all reached the criterion for extinction (number of infusions ≤5, i.e. number of active lever responses <30 in the 1-hour session) in day 9 (last day) of extinction training.
During the reinstatement session, which occurred one day after the last extinction session, rats were presented the cues (flash+tone) at the beginning of the session and their lever-press responses recorded. There was no cocaine infusion during this reinstatement session, subject only received saline on a FR5 schedule. […]

norepinephrine transporter, sequence (P23975 whole entry, species assumed): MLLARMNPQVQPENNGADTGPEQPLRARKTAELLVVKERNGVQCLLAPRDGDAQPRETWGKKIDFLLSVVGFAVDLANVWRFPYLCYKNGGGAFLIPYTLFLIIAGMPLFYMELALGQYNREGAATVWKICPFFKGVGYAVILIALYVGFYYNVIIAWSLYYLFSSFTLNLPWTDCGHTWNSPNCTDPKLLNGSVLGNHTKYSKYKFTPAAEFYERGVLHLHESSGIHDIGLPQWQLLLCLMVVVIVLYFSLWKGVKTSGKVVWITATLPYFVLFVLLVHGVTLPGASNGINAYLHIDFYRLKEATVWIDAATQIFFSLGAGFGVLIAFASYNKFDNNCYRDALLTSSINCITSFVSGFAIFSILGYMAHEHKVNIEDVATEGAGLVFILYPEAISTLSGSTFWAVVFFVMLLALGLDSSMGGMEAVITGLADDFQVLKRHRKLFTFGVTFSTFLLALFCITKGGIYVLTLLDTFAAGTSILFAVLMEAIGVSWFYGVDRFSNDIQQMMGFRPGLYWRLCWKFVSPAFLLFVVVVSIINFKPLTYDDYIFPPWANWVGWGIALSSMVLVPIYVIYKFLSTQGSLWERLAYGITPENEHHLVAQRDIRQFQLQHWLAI

SMILES	ethanol self-administration (mice [1])	cocaine self-administration (mice [2])	cocaine self-administration (rats)	off-target effects on NMDA receptors (NMDA receptors)	off-target effects on monoamine oxidase (monoamine oxidase)	off-target effects on the norepinephrine transporter [3]	ethanol consumption (mice [1])	inhibition of cytochrome P450 1A2 (cytochrome P450 1A2)	responding on the active lever (cocaine self-administration) (Sprague-Dawley rats [4]; 3 mg/kg PO, 60 minutes prior to test, post hoc p<0.10)	responding on the active lever (cocaine self-administration) (Sprague-Dawley rats [4]; 10 mg/kg PO, 1 hour prior to test, post hoc p<0.001)	cue-induced reinstatement of the self-administration response (Sprague-Dawley rats [5])
Cc1cccc(C#Cc2ccccc2)n1 [MPEP, 2-methyl-6-(2-phenylethynyl)pyridine]	decreased ethanol self-administration	decreased cocaine self-administration	decreased cocaine self-administration	off-target effects	off-target effects	off-target effects	–	–	–	–	–
Cc1nc(C#Cc2cccnc2)cs1 [MTEP, 3-[2-(2-methylthiazol-4-yl)ethynyl]pyridine]	decreased ethanol self-administration	–	decreased cocaine self-administration	–	–	–	decreased ethanol consumption	potent inhibition	–	–	–
COC(=O)N1CC[C@@H]2[C@H]1CCC[C@@]2(O)C#Cc1cccc(C)c1 [mavoglurant, (−)-(3aR,4S,7aR)-4-Hydroxy-4-m-tolylethynyl-octahydro-indole-1-carboxylic acid methyl ester]	–	–	–	–	–	–	–	–	tended to reduce responding on the active lever	significantly reduced responding; also recorded: significantly reduced cocaine self-administration	cue-induced reinstatement was suppressed; also recorded: completely prevented cue-induced reinstatement
